Data from BindingDB's records for doi:10.1124/jpet.103.049254 (Schering-Plough Research Institute, 2003).
pKi: −log10 of the molar value.

What was measured:
Histamine H1 receptor = Histamine H1 receptor (Cavia porcellus, UniProt P31389)
Histamine H2 receptor = Histamine H2 receptor (Cavia porcellus, UniProt P47747)
Hrh3 protein = Hrh3 protein (Rattus norvegicus, UniProt Q5PPG3)
Nischarin = Nischarin (Rattus norvegicus, UniProt Q4G017)
Sequence of Nischarin (Q4G017 whole entry): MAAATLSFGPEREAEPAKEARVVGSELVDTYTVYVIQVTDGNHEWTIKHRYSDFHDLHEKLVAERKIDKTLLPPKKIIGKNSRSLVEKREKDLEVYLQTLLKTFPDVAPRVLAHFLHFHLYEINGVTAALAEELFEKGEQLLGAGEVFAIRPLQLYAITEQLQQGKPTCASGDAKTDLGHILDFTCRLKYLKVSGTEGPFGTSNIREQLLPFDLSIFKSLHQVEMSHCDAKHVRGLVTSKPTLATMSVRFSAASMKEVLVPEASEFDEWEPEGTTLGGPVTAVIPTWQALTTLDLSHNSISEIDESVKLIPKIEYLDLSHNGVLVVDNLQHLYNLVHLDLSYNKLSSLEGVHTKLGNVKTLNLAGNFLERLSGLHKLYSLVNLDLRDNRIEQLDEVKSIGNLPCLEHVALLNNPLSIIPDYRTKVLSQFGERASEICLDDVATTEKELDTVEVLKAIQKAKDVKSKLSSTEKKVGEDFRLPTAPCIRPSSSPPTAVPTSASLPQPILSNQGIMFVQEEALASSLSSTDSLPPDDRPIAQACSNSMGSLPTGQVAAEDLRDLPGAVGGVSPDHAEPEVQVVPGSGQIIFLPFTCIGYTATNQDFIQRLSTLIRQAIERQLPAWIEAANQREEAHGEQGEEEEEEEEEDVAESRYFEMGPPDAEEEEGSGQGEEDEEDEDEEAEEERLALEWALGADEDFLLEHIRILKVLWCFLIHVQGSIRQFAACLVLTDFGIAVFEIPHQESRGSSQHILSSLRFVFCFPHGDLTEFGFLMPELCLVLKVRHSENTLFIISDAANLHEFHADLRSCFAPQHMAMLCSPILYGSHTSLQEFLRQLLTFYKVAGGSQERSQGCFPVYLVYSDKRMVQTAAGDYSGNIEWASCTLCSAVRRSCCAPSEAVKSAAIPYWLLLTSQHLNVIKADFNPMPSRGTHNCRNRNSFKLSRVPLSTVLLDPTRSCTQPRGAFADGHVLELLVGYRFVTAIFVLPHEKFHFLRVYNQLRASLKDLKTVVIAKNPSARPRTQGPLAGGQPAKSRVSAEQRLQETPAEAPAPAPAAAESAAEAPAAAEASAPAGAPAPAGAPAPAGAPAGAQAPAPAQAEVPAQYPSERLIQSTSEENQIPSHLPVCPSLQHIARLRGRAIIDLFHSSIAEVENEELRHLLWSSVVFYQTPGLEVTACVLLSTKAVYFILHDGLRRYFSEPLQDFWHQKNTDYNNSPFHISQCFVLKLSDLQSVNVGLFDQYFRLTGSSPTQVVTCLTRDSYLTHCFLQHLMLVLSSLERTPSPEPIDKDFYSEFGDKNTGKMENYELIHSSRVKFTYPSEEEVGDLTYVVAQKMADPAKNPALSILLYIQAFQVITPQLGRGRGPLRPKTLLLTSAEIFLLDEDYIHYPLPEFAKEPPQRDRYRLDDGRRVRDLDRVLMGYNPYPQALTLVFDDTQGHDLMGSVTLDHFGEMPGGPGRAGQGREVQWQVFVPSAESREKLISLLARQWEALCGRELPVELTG

Sequence of Hrh3 protein (Q5PPG3 whole entry): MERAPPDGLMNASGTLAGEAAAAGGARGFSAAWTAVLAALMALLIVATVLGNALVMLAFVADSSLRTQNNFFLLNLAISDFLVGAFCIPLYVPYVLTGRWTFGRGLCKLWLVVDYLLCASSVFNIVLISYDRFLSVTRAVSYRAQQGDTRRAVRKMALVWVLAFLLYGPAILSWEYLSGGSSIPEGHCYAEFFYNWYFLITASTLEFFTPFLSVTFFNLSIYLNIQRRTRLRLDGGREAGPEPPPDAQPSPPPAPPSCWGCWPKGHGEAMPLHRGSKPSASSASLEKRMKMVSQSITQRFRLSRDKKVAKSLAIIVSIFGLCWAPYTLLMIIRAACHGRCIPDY
Sequence of Histamine H2 receptor (P47747 whole entry): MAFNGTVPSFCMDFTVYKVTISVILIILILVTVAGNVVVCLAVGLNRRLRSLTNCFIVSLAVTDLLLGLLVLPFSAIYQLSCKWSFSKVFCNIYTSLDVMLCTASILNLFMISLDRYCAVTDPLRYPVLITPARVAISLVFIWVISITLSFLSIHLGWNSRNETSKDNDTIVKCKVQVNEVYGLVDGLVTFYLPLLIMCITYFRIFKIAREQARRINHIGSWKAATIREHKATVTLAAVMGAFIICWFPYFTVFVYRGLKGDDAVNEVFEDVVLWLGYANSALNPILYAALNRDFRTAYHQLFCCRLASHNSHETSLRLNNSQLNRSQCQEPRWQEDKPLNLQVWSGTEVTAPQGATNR
Sequence of Histamine H1 receptor (P31389 whole entry): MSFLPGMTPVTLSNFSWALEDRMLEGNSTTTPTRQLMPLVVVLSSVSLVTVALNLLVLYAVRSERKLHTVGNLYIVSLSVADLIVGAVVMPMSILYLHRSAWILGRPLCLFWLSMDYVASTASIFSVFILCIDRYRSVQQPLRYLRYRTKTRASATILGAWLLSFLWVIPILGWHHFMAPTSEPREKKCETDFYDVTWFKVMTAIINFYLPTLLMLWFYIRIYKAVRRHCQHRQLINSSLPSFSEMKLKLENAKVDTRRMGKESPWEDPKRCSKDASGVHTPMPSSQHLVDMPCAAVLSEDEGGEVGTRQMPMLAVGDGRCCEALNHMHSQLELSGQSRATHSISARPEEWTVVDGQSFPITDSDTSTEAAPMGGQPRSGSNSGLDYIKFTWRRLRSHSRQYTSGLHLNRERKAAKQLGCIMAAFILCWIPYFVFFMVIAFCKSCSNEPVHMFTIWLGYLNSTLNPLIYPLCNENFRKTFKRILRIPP

Question: Which results are given for `O=C(NCc1ccc(Cc2c[nH]cn2)cc1)Nc1cc(Cl)cc(Cl)c1`?
Answer: pKi (Histamine H1 receptor): 6.00; pKi (Histamine H2 receptor): 6.00; pKi (Hrh3 protein): 8.72; pKi (Nischarin): 6.81
